Values after ≈ are worked out from the molar mass of the structure shown.
Columns and labels:
Type in all cases: functional
Staphylococcus aureus [1] = assay: Antibacterial activity against methicillin-resistant Staphylococcus aureus NRS384 measured by liquid dilution method
Staphylococcus aureus [2] = assay: Antibacterial activity against Staphylococcus aureus ATCC 29213 measured by liquid dilution method
Escherichia coli = assay: Antibacterial activity against Escherichia coli ATCC 25922 measured by liquid dilution method
Staphylococcus aureus [3] = assay: Antibacterial activity against methicillin-resistant Staphylococcus aureus MRSA17-1 measured by liquid dilution method
Staphylococcus aureus [4] = assay: Antibacterial activity against methicillin-resistant Staphylococcus aureus MRSA17-2 measured by liquid dilution method
Staphylococcus aureus [5] = assay: Antibacterial activity against methicillin-resistant Staphylococcus aureus MRSA17-3 measured by liquid dilution method
Staphylococcus aureus [6] = assay: Antibacterial activity against methicillin-resistant Staphylococcus aureus MRSA17-5 measured by liquid dilution method
Staphylococcus aureus [7] = assay: Antibacterial activity against methicillin-resistant Staphylococcus aureus MRSA17-6 measured by liquid dilution method
Staphylococcus aureus [8] = assay: Antibacterial activity against methicillin-resistant Staphylococcus aureus ATCC 33591 measured by liquid dilution method
Staphylococcus aureus [9] = assay: Antibacterial activity against methicillin-resistant Staphylococcus aureus ATCC 43300 measured by liquid dilution method
Staphylococcus aureus [10] = assay: Antibacterial activity against vancomycin-intermediate Staphylococcus aureus ATCC 700699 measured by liquid dilution method
Staphylococcus aureus [11] = assay: Antibacterial activity against vancomycin-intermediate Staphylococcus aureus ATCC 700788 measured by liquid dilution method
Staphylococcus aureus [12] = assay: Antibacterial activity against methicillin-sensitive Staphylococcus aureus MSSA17-1 measured by liquid dilution method
Staphylococcus aureus [13] = assay: Antibacterial activity against methicillin-sensitive Staphylococcus aureus MSSA17-2 measured by liquid dilution method
Staphylococcus aureus [14] = assay: Antibacterial activity against methicillin-sensitive Staphylococcus aureus MSSA17-3 measured by liquid dilution method
[15] = system: Staphylococcus epidermidis; assay: Antibacterial activity against methicillin-resistant Staphylococcus epidermidis MRSE17-1 measured by liquid dilution method
[16] = system: Staphylococcus epidermidis; assay: Antibacterial activity against methicillin-resistant Staphylococcus epidermidis MRSE17-2 measured by liquid dilution method
[17] = system: Staphylococcus epidermidis; assay: Antibacterial activity against methicillin-resistant Staphylococcus epidermidis MRSE17-3 measured by liquid dilution method
[18] = system: Staphylococcus epidermidis; assay: Antibacterial activity against methicillin-resistant Staphylococcus epidermidis MRSE17-4 measured by liquid dilution method
[19] = system: Staphylococcus epidermidis; assay: Antibacterial activity against methicillin-resistant Staphylococcus epidermidis MRSE17-6 measured by liquid dilution method
[20] = system: Staphylococcus epidermidis; assay: Antibacterial activity against methicillin-sensitive Staphylococcus epidermidis MSSE17-1 measured by liquid dilution method
[21] = system: Staphylococcus epidermidis; assay: Antibacterial activity against methicillin-sensitive Staphylococcus epidermidis MSSE17-2 measured by liquid dilution method
[22] = system: Staphylococcus epidermidis; assay: Antibacterial activity against methicillin-sensitive Staphylococcus epidermidis MSSE17-3 measured by liquid dilution method
Enterococcus faecalis [23] = assay: Antibacterial activity against Enterococcus faecalis EFA17-1 measured by liquid dilution method
Enterococcus faecalis [24] = assay: Antibacterial activity against Enterococcus faecalis ATCC 29212 measured by liquid dilution method
Enterococcus faecium [25] = assay: Antibacterial activity against Enterococcus faecium EFM17-1 measured by liquid dilution method
Enterococcus faecium [26] = assay: Antibacterial activity against Enterococcus faecium EFM17-2 measured by liquid dilution method

| Structure (SMILES) | MIC (Staphylococcus aureus [1]) | MIC (Staphylococcus aureus [2]) | MIC (Escherichia coli) | MIC (Staphylococcus aureus [3]) | MIC (Staphylococcus aureus [4]) | MIC (Staphylococcus aureus [5]) | MIC (Staphylococcus aureus [6]) | MIC (Staphylococcus aureus [7]) | MIC (Staphylococcus aureus [8]) | MIC (Staphylococcus aureus [9]) | MIC (Staphylococcus aureus [10]) | MIC (Staphylococcus aureus [11]) | MIC (Staphylococcus aureus [12]) | MIC (Staphylococcus aureus [13]) | MIC (Staphylococcus aureus [14]) | MIC [15] | MIC [16] | MIC [17] | MIC [18] | MIC [19] | other results |
| --- | --- | --- | --- | --- | --- | --- | --- | --- | --- | --- | --- | --- | --- | --- | --- | --- | --- | --- | --- | --- | --- |
| CNC1=NC(=O)C(C(C)c2c[nH]c3ccc(C)cc23)O1 (racemic) | > 128 µg/mL | > 128 µg/mL | > 128 µg/mL |  |  |  |  |  |  |  |  |  |  |  |  |  |  |  |  |  |  |
| CNC1=NC(=O)C(C(C)c2c[nH]c3cccc(N4CCCC4)c23)O1 (racemic) | > 128 µg/mL | 128 µg/mL (≈ 392 µM) | > 128 µg/mL |  |  |  |  |  |  |  |  |  |  |  |  |  |  |  |  |  |  |
| CNC1=NC(=O)[C@@H]([C@@H](C)c2c[nH]c3cccc(Br)c23)O1 |  | > 128 µg/mL |  | 128 µg/mL (≈ 381 µM) | 128 µg/mL (≈ 381 µM) | 64 µg/mL (≈ 190 µM) | 128 µg/mL (≈ 381 µM) | 128 µg/mL (≈ 381 µM) | 128 µg/mL (≈ 381 µM) | 128 µg/mL (≈ 381 µM) | 128 µg/mL (≈ 381 µM) | 128 µg/mL (≈ 381 µM) | 128 µg/mL (≈ 381 µM) | 128 µg/mL (≈ 381 µM) | 128 µg/mL (≈ 381 µM) | > 128 µg/mL | 128 µg/mL (≈ 381 µM) | > 128 µg/mL | 128 µg/mL (≈ 381 µM) | 128 µg/mL (≈ 381 µM) | MIC [20]: 128 µg/mL (≈ 381 µM); MIC [21]: 64 µg/mL (≈ 190 µM); MIC [22]: 128 µg/mL (≈ 381 µM); MIC (Enterococcus faecalis [23]): > 128 µg/mL; MIC (Enterococcus faecalis [24]): > 128 µg/mL; MIC (Enterococcus faecium [25]): > 128 µg/mL; MIC (Enterococcus faecium [26]): > 128 µg/mL |
| CNC1=NC(=O)[C@@H]([C@@H](C)c2c[nH]c3ccccc23)O1 |  | > 128 µg/mL |  | > 128 µg/mL | > 128 µg/mL | > 128 µg/mL | > 128 µg/mL | > 128 µg/mL | > 128 µg/mL | > 128 µg/mL | > 128 µg/mL | > 128 µg/mL | > 128 µg/mL | > 128 µg/mL | > 128 µg/mL | > 128 µg/mL | > 128 µg/mL | > 128 µg/mL | > 128 µg/mL | > 128 µg/mL | MIC [20]: > 128 µg/mL; MIC [21]: > 128 µg/mL; MIC [22]: > 128 µg/mL; MIC (Enterococcus faecalis [23]): > 128 µg/mL; MIC (Enterococcus faecalis [24]): > 128 µg/mL; MIC (Enterococcus faecium [25]): > 128 µg/mL; MIC (Enterococcus faecium [26]): > 128 µg/mL |
| CNC1=NC(=O)C(C(C)c2c[nH]c3ccc(F)cc23)O1 (racemic) | 64 µg/mL (≈ 232 µM) | 32 µg/mL (≈ 116 µM) | 128 µg/mL (≈ 465 µM) |  |  |  |  |  |  |  |  |  |  |  |  |  |  |  |  |  |  |
| CNC1=NC(=O)C(C(C)c2c[nH]c3ccccc23)O1 (racemic) | 1 µg/mL (≈ 3.89 µM) | 1 µg/mL (≈ 3.89 µM) | 1 µg/mL (≈ 3.89 µM) |  |  |  |  |  |  |  |  |  |  |  |  |  |  |  |  |  |  |
| CNC1=NC(=O)[C@H]([C@H](C)c2c[nH]c3cc(F)ccc23)O1 |  | 16 µg/mL (≈ 58.1 µM) |  | 8 µg/mL (≈ 29.1 µM) | 8 µg/mL (≈ 29.1 µM) | 8 µg/mL (≈ 29.1 µM) | 16 µg/mL (≈ 58.1 µM) | 8 µg/mL (≈ 29.1 µM) | 16 µg/mL (≈ 58.1 µM) | 8 µg/mL (≈ 29.1 µM) | 4 µg/mL (≈ 14.5 µM) | 8 µg/mL (≈ 29.1 µM) | 16 µg/mL (≈ 58.1 µM) | 16 µg/mL (≈ 58.1 µM) | 8 µg/mL (≈ 29.1 µM) | 16 µg/mL (≈ 58.1 µM) | 16 µg/mL (≈ 58.1 µM) | 4 µg/mL (≈ 14.5 µM) | 16 µg/mL (≈ 58.1 µM) | 16 µg/mL (≈ 58.1 µM) | MIC [20]: 8 µg/mL (≈ 29.1 µM); MIC [21]: 8 µg/mL (≈ 29.1 µM); MIC [22]: 8 µg/mL (≈ 29.1 µM); MIC (Enterococcus faecalis [23]): > 128 µg/mL; MIC (Enterococcus faecalis [24]): > 128 µg/mL; MIC (Enterococcus faecium [25]): > 128 µg/mL; MIC (Enterococcus faecium [26]): > 128 µg/mL |
| CNC1=NC(=O)C(C(C)c2c[nH]c3cccc(OCc4ccccc4)c23)O1 (racemic) | > 128 µg/mL | > 128 µg/mL | > 128 µg/mL |  |  |  |  |  |  |  |  |  |  |  |  |  |  |  |  |  |  |
| CNC1=NC(=O)C(C(C)c2c[nH]c3ccc(N4CCCCC4)cc23)O1 (racemic) | > 128 µg/mL | > 128 µg/mL | > 128 µg/mL |  |  |  |  |  |  |  |  |  |  |  |  |  |  |  |  |  |  |

Source: ChEMBL document CHEMBL5104172, “Design, synthesis, and antibacterial activity of derivatives of Tryptophanyl-tRNA synthetase inhibitor indolmycin” (Eur J Med Chem, 2022)
